Assay results: patent US20240228512A1, “ACYCLIC OXAZEPINE COMPOUNDS COMPRISING A 6-AZA MOIETY AND USES THEREOF” (Genentech, Inc., priority 2022, published 2024)

Assays:
Assay type in all cases: cell-based
H1975 cells = test: H1975 CTG proliferation assay; details: Homo sapiens, NCI-H1975, H1975, CTG
SW620 cells = test: SW620 3D proliferation assay (CellTiter-Glo); details: Homo sapiens, SW-620, 168 h, SW620, 3D culture, 7 days, read-out: SW620 CTG IC50
Procedure, shortened: (§1)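 Cells were seeded in ultra-low attachment plates (3000 or 1000 cells/well for 96- or 384-well format) in RPMI-1640, 10% FBS, 2 mM L-glutamine and cultured overnight at 37 °C/5% CO2 to form spheroids. Compounds were added by 333-fold dilution from DMSO for 7 days. Viability was read as CellTiter-Glo 3D ATP luminescence, with IC50 from a 4-parameter logistic fit.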

SW620 PERK = SW620 PERK assay; details: Homo sapiens, SW-620, SW620, PERK
SW480 cells = test: SW480 CTG proliferation assay; details: Homo sapiens
HPAC cells = test: HPAC 3D proliferation assay (CellTiter-Glo); details: Homo sapiens, 168 h, 3D culture, 7 days, read-out: HPAC CTG IC50
Procedure, shortened: as §1

Compound	IC50 (H1975 cells) [µM]	IC50 (SW620 cells) [µM]	IC50 (SW620 PERK) [µM]	IC50 (SW480 cells) [µM]	IC50 (HPAC cells) [µM]
Cc1c(F)c(N)cc(-c2nc3c4c(nc(OC[C@@H]5CC[C@H]6COCCN65)nc4c2F)N([C@H](C)c2cccnc2N)CCO3)c1C(F)(F)F [Example 16, 3-((R)-1-(5-(5-amino-4-fluoro-3-methyl-2-(trifluoromethyl)phenyl)-4-fluoro-2-(((6S,8aS)-hexahydro-1H-pyrrolo[2,1-c][1,4]oxazin-6-yl)methoxy)-8,9-dihydro-10H-7-oxa-1,3,6,10-tetraazacyclohepta[de]naphthalen-10-yl)ethyl)pyridin-2-amine]	0.0311	0.00377	0.00253	0.01	0.0302
C#Cc1cccc2cc(O)cc(-c3nc4c5c(nc(OCC67CCN6CC(F)(F)C7)nc5c3F)N([C@H](C)c3cccnc3N)CCO4)c12 (stereo partly drawn) [Example 1, 4-(10-((R)-1-(2-aminopyridin-3-yl)ethyl)-2-((3,3-difluoro-1-azabicyclo[3.2.0]heptan-5-yl)methoxy)-4-fluoro-9,10-dihydro-8H-7-oxa-1,3,6,10-tetraazacyclohepta[de]naphthalen-5-yl)-5-ethynyinaphthalen-2-ol]	0.0474	0.007	0.00142	0.026	0.144
Cc1c(F)c(N)c(F)c(-c2nc3c4c(nc(OC[C@@]56CCCN5C[C@H](F)C6)nc4c2F)N([C@H](C)c2cccnc2N)CCO3)c1C(F)(F)F [Example 12, 3-((1R)-1-(5-(3-amino-2,4-difluoro-5-methyl-6-(trifluoromethyl)phenyl)-4-fluoro-2-(((2R,7aS)-2-fluorotetrahydro-1H-pyrrolizin-7a(5H)-yl)methoxy)-8,9-dihydro-10H-7-oxa-1,3,6,10-tetraazacyclohepta[de]naphthalen-10-yl)ethyl)pyridin-2-amine]	0.0594	0.00563	0.00162	0.0028	0.0147
C#Cc1cccc2cc(N)cc(-c3nc4c5c(nc(OC[C@@]67CCCN6C[C@H](F)C7)nc5c3F)N([C@H](C)c3cccnc3N)CCO4)c12 [Example 4, 3-((R)-1-(5-(3-amino-8-ethynyinaphthalen-1-yl)-4-fluoro-2-(((2R,7aS)-2-fluorotetrahydro-1H-pyrrolizin-7a(5H)-yl)methoxy)-8,9-dihydro-10H-7-oxa-1,3,6,10-tetraazacyclohepta[de]naphthalen-10-yl)ethyl)pyridin-2-amine]	0.00259	0.00126	0.00107	0.0024	0.00572
Cc1cc(N)c(F)c(-c2nc3c4c(nc(OC[C@@]56CCCN5C[C@H](F)C6)nc4c2F)N([C@H](C)c2cccnc2N)CCO3)c1C(F)(F)F [Example 15, 3-((1R)-1-(5-(3-amino-2-fluoro-5-methyl-6-(trifluoromethyl)phenyl)-4-fluoro-2-(((2R,7aS)-2-fluorotetrahydro-1H-pyrrolizin-7a(5H)-yl)methoxy)-8,9-dihydro-10H-7-oxa-1,3,6,10-tetraazacyclohepta[de]naphthalen-10-yl)ethyl)pyridin-2-amine]	0.00259	0.00074	0.00224	0.01	0.00884
CCc1cccc2cc(O)cc(-c3nc4c5c(nc(OC[C@@]67CCCN6C[C@H](F)C7)nc5c3F)N([C@H](C)c3cccnc3N)CCO4)c12 [Example 27, 4-(10-((R)-1-(2-aminopyridin-3-yl)ethyl)-4-fluoro-2-(((2R,7aS)-2-fluorotetrahydro-1H-pyrrolizin-7a(5H)-yl)methoxy)-9,10-dihydro-8H-7-oxa-1,3,6,10-tetraazacyclohepta[de]naphthalen-5-yl)-5-ethylnaphthalen-2-ol]	0.00259	0.00168		0.031	0.0552
C[C@H](c1cccnc1N)N1CCOc2nc(-c3cc(O)cc4cccc(F)c34)c(F)c3nc(OC[C@@]45CCCN4C[C@H](F)C5)nc1c23 [Example 25, 4-(10-((R)-1-(2-aminopyridin-3-yl)ethyl)-4-fluoro-2-(((2R,7aS)-2-fluorotetrahydro-1H-pyrrolizin-7a(5H)-yl)methoxy)-9,10-dihydro-8H-7-oxa-1,3,6,10-tetraazacyclohepta[de]naphthalen-5-yl)-5-fluoronaphthalen-2-ol]	0.0831	0.00881	0.0276	0.11	0.25
C[C@H](c1cccnc1N)N1CCOc2nc(-c3cccc4sc(N)nc34)c(F)c3nc(OC[C@@]45CCCN4C[C@H](F)C5)nc1c23 [Example 24, 4-(10-((R)-1-(2-aminopyridin-3-yl)ethyl)-4-fluoro-2-(((2R,7aS)-2-fluorotetrahydro-1H-pyrrolizin-7a(5H)-yl)methoxy)-9,10-dihydro-8H-7-oxa-1,3,6,10-tetraazacyclohepta[de]naphthalen-5-yl)benzo[d]thiazol-2-amine]	5.17	1.02	0.466	0.7	2
Cc1cc(N)c(F)c(-c2nc3c4c(nc(OC[C@@H]5CC[C@H]6COCCN65)nc4c2F)N([C@H](C)c2cccnc2N)CCO3)c1C(F)(F)F [Example 22, 3-((1R)-1-(5-(3-amino-2-fluoro-5-methyl-6-(trifluoromethyl)phenyl)-4-fluoro-2-(((6S,8aS)-hexahydro-1H-pyrrolo[2,1-c][1,4]oxazin-6-yl)methoxy)-8,9-dihydro-10H-7-oxa-1,3,6,10-tetraazacyclohepta[de]naphthalen-10-yl)ethyl)pyridin-2-amine]	0.0487	0.00645	0.00632	0.024	0.067
C[C@H](c1cccnc1N)N1CCOc2nc(-c3cc(N)c(F)c(F)c3C(F)(F)F)c(F)c3nc(OC[C@@]45CCCN4C[C@H](F)C5)nc1c23 [Example 623, 3-((R)-1-(5-(5-amino-3,4-difluoro-2-(trifluoromethyl)phenyl)-4-fluoro-2-(((2R,7aS)-2-fluorotetrahydro-1H-pyrrolizin-7a(5H)-yl)methoxy)-8,9-dihydro-10H-7-oxa-1,3,6,10-tetraazacyclohepta[de]naphthalen-10-yl)ethyl)pyridin-2-amine]	4.3	0.0033	0.00229	0.05	0.0141
C#Cc1cccc2cc(O)cc(-c3nc4c5c(nc(OC[C@@H]6CC[C@H]7COCCN76)nc5c3F)N([C@H](C)c3cccnc3N)CCO4)c12 [Example 17, 4-(10-((R)-1-(2-aminopyridin-3-yl)ethyl)-4-fluoro-2-(((6S,8aS)-hexahydro-1H-pyrrolo[2,1-c][1,4]oxazin-6-yl)methoxy)-9,10-dihydro-8H-7-oxa-1,3,6,10-tetraazacyclohepta[de]naphthalen-5-yl)-5-ethynyinaphthalen-2-ol]	0.00915	0.0137	0.00433	0.11	0.228
